In PMC5556109, “A combinatorial approach for the discovery of cytochrome P450 2D6 inhibitors from nature” (Scientific Reports, 2017):
Where two headings read alike, the source gives them in different places.

Tests used:
[1] = test system: CYP2D6; assay: CYP2D6 inhibition of virtual hits already reported in the literature
Text: the hits according to non-available CYP2D6 inhibition data, plant origin and availability. The

[2] = test system: CYP2D6; details: Supplementary Table S2, supplementary reference list, cited from earlier work; for IC50: read-out: Inhibitory potency IC50
[3] = test system: P450-Glo detection reaction (unspecific esterase and modified firefly-luciferase); assay: P450-Glo detection reaction control (luciferin-EGE, esterase, luciferase, test compound, no CYP2D6); details: for P450-Glo Detection Reaction MEAN Diff. (inhibition of the detection reaction) / P450-Glo Detection Reaction MEAN (total luminescence): 50 µM test compound; for P450-Glo Detection Reaction MEAN Diff. (inhibition of the detection reaction): difference to DMSO 1% control; for P450-Glo Detection Reaction MEAN (total luminescence): no CYP2D6, DMSO control = 100; for p < 0.05 (significant inhibition of the P450-Glo detection reaction): 50 µM, one-way ANOVA, Dunnett's test vs DMSO control
Text: This detection-reagent consists of i) a detergent that stops the CYP2D6 enzyme reaction, ii) an unspecific esterase that continuously releases luciferin and iii) a modified firefly-luciferase, thus a stable luminogenic signal is generated, which can be quantified by a luminometer (Fig. 1). The detection reaction is incorporated in the P450-Glo CYP2D6 inhibition assay. However, we implemented additional controls for unspecific interactions of the test compounds with the detection reaction. For this purpose, the previously established luminescence quenching control reaction reported by Modarai et al.[9] was adapted to our requirements with modifications for the use of larger sample volumes. In addition, Modarai et al. converted ME-luciferin-EGE to luciferin in the absence of a test compound and then evaluated the inhibition of the luciferase reaction.We conducted the control step by using pure luciferin-EGE, esterase, luciferase and a test compound in the absence of CYP2D6 (Supplementary Table S4).
The quantification of the P450-Glo detection reaction was performed by subtracting the background values prior to calculating the percentage of total luminescence (% TL) based on the total luminescence obtained from the solvent control (set to 100%).
We then added 12.5 µl 4× reaction mixture (5 µl 1.5 mM luciferin-EGE stock solution, 500 µl 1 M KPO4 buffer and 745 µl luciferase free water) to the wells. Finally, 25 µl of the 2× NADPH regeneration system was added. In order to initiate the detection reaction, 50 µl of the reconstituted luciferin detection reagent containing the esterase was added to the samples, positive and solvent control wells. This step was followed by 20 minutes incubation in the dark for signal stabilization. In the wells reserved for background luminescence, luciferase-free water was added. Measurements were performed on a Tecan infinite F200 PRO plate reader on two independent days (n = 2) at minimum.
(§1) Raw data obtained from Tecan infinite F200 PRO plate reader was processed by calculating total luminescence (% of untreated control) by applying the formula: raw data − (background luminescence) * 100/mean of negative control.
A one-way ANOVA followed by Dunnett’s multiple comparisons test was performed. […] A p-value of < 0.05 was used to indicate significance.

[4] = biological target: CYP2D6 (Homo sapiens, UniProt P10635); assay: P450-Glo CYP2D6 inhibition assay (bioluminescence-based; pre-screen at 100 µM and IC50 determination); details: for classification of CYP2D6 inhibition (actives / weak actives / inactives): ranked by IC50, inactives from pre-screen at 100 µM
Chain of CYP2D6 (Homo sapiens, UniProt P10635) (P10635 whole entry): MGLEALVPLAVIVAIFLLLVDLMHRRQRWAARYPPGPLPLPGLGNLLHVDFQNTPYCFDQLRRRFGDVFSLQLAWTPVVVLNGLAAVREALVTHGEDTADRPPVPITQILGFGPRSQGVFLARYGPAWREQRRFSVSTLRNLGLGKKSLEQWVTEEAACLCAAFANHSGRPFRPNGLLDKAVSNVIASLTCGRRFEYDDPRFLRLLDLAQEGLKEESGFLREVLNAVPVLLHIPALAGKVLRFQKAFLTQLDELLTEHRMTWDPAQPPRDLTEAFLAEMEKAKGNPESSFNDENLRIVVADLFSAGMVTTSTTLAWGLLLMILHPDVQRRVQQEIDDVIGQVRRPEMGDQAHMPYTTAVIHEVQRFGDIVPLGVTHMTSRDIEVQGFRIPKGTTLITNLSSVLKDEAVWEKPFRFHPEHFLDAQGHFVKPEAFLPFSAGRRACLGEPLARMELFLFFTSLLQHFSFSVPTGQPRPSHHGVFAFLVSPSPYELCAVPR
Protocol: Their CYP2D6 inhibitory potential was determined at a concentration of 100 µM in a final reaction volume of 50 µl. […] All compounds were dissolved in DMSO and the concentration thereof in the final reaction volume was 1%, according to the limitations indicated in the manufacturer’s protocol. […] To take into account the background luminescence, which may derive from a non-enzymatic conversion of ME-luciferin-EGE to luciferin, we included a ‘minus P450’ control that contained no CYP2D6 enzyme. In order to quantify CYP2D6 activity, we subtracted background values prior to calculating the percentage of total luminescence (% TL) obtained from the solvent control (set to 100%). Low % TL indicates low CYP2D6 activity.
In the three minus P450 control wells, 12.25 µl of the 4× reaction mixture was added. […] The plate was incubated for 10 minutes. The CYP2D6 enzyme reaction was initiated by the addition of 25 µl of 2× NADPH regeneration system (2.6 mM NADP^+, 6.6 mM glucose-6-phosphate, 6.6 mM MgCl2 and 0.8 U/ml glucose-6-phosphate dehydrogenase buffered in 0.1 mM sodium citrate at pH 5.5; Promega). After 45 minutes incubation, the enzyme reaction was stopped by the addition of 50 µl of the luciferin detection reagent, which contained also the esterase for the generation of the luminescence signal. The plate was incubated in the dark for 20 minutes in order to stabilize the signal measured by a Tecan infinite F200 PRO plate reader. […] The maximum allowed DMSO concentration in the final reaction mix was 1% according to the manufacturer’s protocol. The experiment was performed at room temperature and under prevention of excessive UV-light at minimum on two independent days (n = 2).
Concentration-dependent CYP2D6 inhibition assays were performed by preparing a 5-step dilution series of the 400 µM compound solutions. […] After this dilution step, 12.5 µl of each dilution was transferred to the assay plate. The assay was performed as described above. The DMSO concentration was kept constant for all concentrations with a maximum of 1%. The experiments were performed on three independent experimental days (n = 3).
as §1

[5] = authors' classification of the literature value, Supplementary Table S2
[6] = IC50, P450-Glo CYP2D6 Inhibition Assay, recombinant human CYP2D6, 6 concentrations (compound 18: 4), n = 3

Row | SMILES | P450-Glo Detection Reaction MEAN Diff. (inhibition of the detection reaction) [3] | P450-Glo Detection Reaction MEAN (total luminescence) [3] | p < 0.05 (significant inhibition of the P450-Glo detection reaction) [3] | IC50 [4] | classification of CYP2D6 inhibition (actives / weak actives / inactives) [4] | other results
1 | C=C[C@H]1CN2CC[C@H]1C[C@H]2[C@H](O)c1ccnc2ccccc12 [Cinchonidine] |  |  |  |  |  | Classification of literature CYP2D6 inhibition [1, 5]: active; IC50 [2]: 10 µM
2 | COc1ccc(C[C@H]2c3cc(OC)c(OC)cc3CCN2C)cc1O [Compound 11, (+)-Laudanidine] | 5.86% | 94.14 % TL | Yes | 0.38 µM | actives (those compounds were classified as active, which exhibited CYP2D6 IC50 values up to 10 µM) | 
3 | COc1ccc2c(c1OC)CN1CCc3cc4c(cc3C1C2C)OCO4 (stereo not shown) [Compound 3, Thalictrivacine] | 8.23% | 91.77 % TL | Yes |  | actives (those compounds were classified as active, which exhibited CYP2D6 IC50 values up to 10 µM) | IC50 [4, 6]: 5.14 µM
4 | CN1CCc2cc3c(cc2C(=O)Cc2ccc4c(c2C1)OCO4)OCO3 [Protopine] |  |  |  |  |  | Classification of literature CYP2D6 inhibition [1]: active; Ki ([2]; read-out: Inhibitory potency Ki): 0.078 µM
5 | COc1cc2c(cc1OC)[C@@H]1Cc3ccc(OC)c(OC)c3CN1CC2 [Tetrahydropalmatine] |  |  |  |  |  | Classification of literature CYP2D6 inhibition [1, 5]: active; IC50 [2]: 3.04 ± 0.26 µM
6 | COc1cc2c(cc1OC)[C@H]1[C@@H](C)c3ccc(OC)c(OC)c3CN1CC2 [Corydaline] |  |  |  |  |  | Classification of literature CYP2D6 inhibition [1, 5]: weak; Classification of literature CYP2D6 inhibition ([1]; w/o preincubation, authors' classification of the literature value, Supplementary Table S2): inactive; IC50 ([2]; w/ preincubation): 64.5 ± 9.8 µM; IC50 ([2]; w/o preincubation): 116 ± 7.6 µM
7 | COc1cc2c(cc1OC)C1Cc3cc(O)c(O)cc3CN1CC2 (stereo not shown) [Compound 14, Spinosine] | 4.73% | 95.27 % TL | Yes | 0.117 µM | actives (those compounds were classified as active, which exhibited CYP2D6 IC50 values up to 10 µM) | 
8 | COc1cc2c(cc1OC)-c1cc3ccc(OC)c(OC)c3c[n+]1CC2 [Palmatine chloride] |  |  |  |  |  | Classification of literature CYP2D6 inhibition [1]: weak; Inhibitory potency (IC50/Ki not specified) [2]: 92.6 µM
9 | COC(=O)N1c2ccccc2C23C4CN5CCCC6(CCC12C(O)(C6)C4=O)C53 (single isomer, unassigned; (-)) [Compound 16, (-)-Kopsine] | 10.30% | 89.70 % TL | Yes |  |  | 
10 | O=C(O)c1ccccc1-n1ccc2c([nH]c3ccccc32)c1=O [Compound 5, Secofascaplysic acid] | 20.46% | 79.54 % TL | Yes | 50.4 µM | weak actives | 
11 | COC(=O)C1=CO[C@@H](C)[C@@H]2CN3CC[C@]4(C(=O)Nc5ccccc54)[C@@H]3C[C@H]12 [Compound 1, Pteropodine] | 7.50% | 92.50 % TL | Yes | 33.8 µM | weak actives | 
12 | CCC1=CC2CN3CCc4c([nH]c5ccccc45)C(C(=O)OC)(C2)C13 (single isomer, unassigned; (+)) [Compound 7, (+)-Catharanthine] | 6.41% | 93.59 % TL | Yes | 0.582 µM | actives (those compounds were classified as active, which exhibited CYP2D6 IC50 values up to 10 µM) | 
13 | COC(=O)C1CC23C=CCN4CCC5(c6ccccc6NC15CC2)C43 (single isomer, unassigned; (-)) [Compound 10, (-)-Venalstonine] | 3.66% | 96.34 % TL | No |  |  | 
14 | CCC12C=CCN3CC[C@@]4(c5ccc(OC)cc5N(C)[C@H]4[C@@](O)(C(=O)OC)[C@@H]1OC(C)=O)[C@@H]32 (stereo partly shown) [Vindoline] |  |  |  |  |  | Classification of literature CYP2D6 inhibition [1, 5]: active; IC50 [2]: 15.9 µM
15 | COC(=O)C1=CO[C@@H](C)[C@H]2CN3CC[C@@]4(C(=O)Nc5ccccc54)[C@@H]3C[C@H]12 [Compound 23, Isomitraphylline] | 0.59% | 99.41 % TL | No |  |  | 
16 | COc1cc2c(cc1O)-c1c(O)c(OC)cc3c1[C@H](C2)N(C)CC3 [Compound 18, Bracteoline] | 12.30% | 87.70 % TL | Yes | 2.11 µM | actives (those compounds were classified as active, which exhibited CYP2D6 IC50 values up to 10 µM) | 
17 | CC[C@]12C=CCN3CC[C@]4(C(=C(C(=O)OC)C1)Nc1ccccc14)[C@@H]32 [Compound 22, Tabersonine] |  | 104.20 % TL | Yes |  | actives (those compounds were classified as active, which exhibited CYP2D6 IC50 values up to 10 µM) | IC50 [4, 6]: 0.419 µM
18 | COc1ccc(C[C@@H]2NCCc3cc(OC)c(O)cc32)cc1O [Compound 9, (S)-Norreticuline] | 7.64% | 92.36 % TL | Yes |  | actives (those compounds were classified as active, which exhibited CYP2D6 IC50 values up to 10 µM) | IC50 at 45 min ([4]; human, recombinant human CYP2D6 baculosomes, pH 7.4, probe ME-luciferin-EGE): 0.0636 µM
19 | CC=C1C2CCN3CCC4(C(=C2C(=O)OC)Nc2ccccc24)C13 (single isomer, unassigned; (+)) [Compound 17, (+)-Condylocarpine] | 7.34% | 92.66 % TL | Yes | 8.16 µM | actives (those compounds were classified as active, which exhibited CYP2D6 IC50 values up to 10 µM) | 
20 | COC1=C[C@]23CCN(C)[C@H](Cc4ccc(OC)c(O)c42)C3=CC1=O [Compound 20, (+)-Salutaridine] | 2.94% | 97.06 % TL | No | 24 µM | weak actives | 
21 | O=C(NCCCCNCCCNC(=O)c1ccc(O)c(O)c1)c1ccc(O)c(O)c1 [Compound 4, Pistillarin] | 13.61% | 86.39 % TL | Yes |  |  | 
22 | COC(=O)C1C(O)CCC2C[N+]3(C)CCc4c([nH]c5cccc(OC)c45)C3CC21 (stereo not shown) [Compound 8, Venenatine methiodide] | 9.14% | 90.86 % TL | Yes | 4.6 µM | actives (those compounds were classified as active, which exhibited CYP2D6 IC50 values up to 10 µM) | 
23 | COC1=C[C@@H]2[C@@H]3Cc4ccc(OC)c(O)c4[C@]2(CCN3C)CC1=O [Sinomenine] |  |  |  |  |  | Classification of literature CYP2D6 inhibition [1, 5]: inactive; Inhibitory potency ([2]; at 50 µM): no inhibition
24 | COc1cc2c(cc1OC)C(=O)Cc1ccc3c(c1CN(C)CC2)OCO3 [Cryptopine] |  |  |  |  |  | Classification of literature CYP2D6 inhibition [1, 5]: unclear; Inhibitory potency [2]: stated as inhibitor
26 | COc1ccc(CC2c3cc(O)c(OC)cc3CCN2C)cc1O (single isomer, unassigned; (+)) [Compound 19, (+)-Reticuline] | 1.06% | 98.94 % TL | No | 0.0547 µM | actives (those compounds were classified as active, which exhibited CYP2D6 IC50 values up to 10 µM) | 
27 | COc1ccc(/C=C\c2cc(OC)c(OC)cc2CCN(C)C)cc1 [Compound 15, Des-N,O-dimethylarmepavine] | 6.23% | 93.77 % TL | Yes | 0.198 µM | actives (those compounds were classified as active, which exhibited CYP2D6 IC50 values up to 10 µM) | 
